Test results from patent US20150118221A1, “COMPOSITIONS AND METHODS FOR TREATING CARDIAC HYPERTROPHY” (THE JOHNS HOPKINS UNIVERSITY, priority 2012, published 2015).
Entries after “also recorded” stand apart in the source; their conditions may differ. Blank lines part the entries; values can stand above or below the molecule they belong to.

Experiments:
[1] = cited from earlier work
[2] = system: apoE−/− mice; test: M-mode echocardiography (fractional shortening, LV mass, wall thickness) in apoE−/− mice on high fat and cholesterol diet; type: in vivo, mouse
Method: Apoliporotein E-deficient (ApoE (−/−), male aged 11 weeks were purchased from the Jackson Laboratory, Bar Harbor, Me. At the age of 12 weeks, the Apo E(−/−) mice were started on a high fat and high cholesterol diet (HFHC) consisting of 20% fat, and 1.25% cholesterol (D12108C, Research Diet Inc., New Brunswick, N.J.) for 20 to 36 weeks with and without treatment with D-PDMP (5 mg/kg, 10 mg/kg) and compared to control fed only chow diet and placebo mice fed HFHC+Vehicle (composed of 5% Tween-80 in phosphate buffered saline). Diet was rationed once a week to estimate the weekly growth rate and food intake. Physiological studies were performed around the age of 12, 20 and 36 weeks. Blood was drawn to prepare serum and heart tissues were harvested and studied at molecular and histopathological level. Tissues were harvested at 12, 20 and 36 weeks of age.
Animals were subject to physiological measurements, e.g., weight, blood pressure, ultra sound to measure fractional shortening (FS), left ventricular mass (LVM), heart weight to tibia length ratio, heart anatomy etc. A group of mice (N=5) were euthanized to obtain base line values for aorta and blood samples were collected. The rest of the mice were divided in to several groups. These were: Placebo (mice fed vehicle only (5% Tween-80 in phosphate buffered saline), 5 mpk D-PDMP solubilized in vehicle and 10 mpk D-PDMP solubilized in vehicle). Placebo and D-PDMP was delivered daily by oral gavage. The physiological measurements were repeated at 20 weeks and 36 week interval and then the mice were euthanized by asphyxia. This protocol was approved by the committee for research on animals at the Johns Hopkins University.
(§1) Trans-thoracic echocardiography was performed in conscious mice using the 2100 Visualsonic ultrasound device (Toronto, Ontario, Canada), and the Sequoia Acuson C256 (Malvern, Pa.) system, equipped with a 40 MHz and 15 MHz linear transducer, respectively. M-mode echocardiogram was obtained in the parasternal short axes view of the left ventricle (LV) at the level of the papillary muscles and at sweep speed of 200 mm/sec.
(§2) LV mass (mg): 1.055[(IVSD+LVEDD+PWTED)^3−(LVEDD)^3],

[3] = system: apoE−/− mice; test: Blood pressure, CODA tail cuff system; type: in vivo, mouse
Method: (§3) Aortic pulse wave velocity (PWV) was measured with mice placed supine under anesthesia with 1.5% isoflurane. An ECG-triggered, 2-mm, 10-MHz Doppler probe was used to measure blood flow at the thoracic and abdominal aorta. PWV was calculated by the thoracic-abdominal distance divided by the pulse transit time between the thoracic and abdominal measurement sites. Blood pressure was acquired using the CODA tail cuff system (Kent Scientific Co, USA) to measure systolic and diastolic pressure. Estimated the effect of mean pressure (MP(mmHg) on PWV (m/sec) was calculated using the following equation: PWVc=0.0006(MP)^2-0.0564MP+3.9711.

[4] = system: apoE−/− mice; test: Aortic pulse wave velocity (PWV), arterial stiffness; type: in vivo, mouse; details: 10 mpk, compared to 5 mpk D-PDMP and placebo
Method: as §3

[5] = system: apoE−/− mice; test: Histology of aorta and heart tissue (wall thickening, fibrosis, plaque accumulation); type: in vivo, mouse; details: FIG. 5
Excerpt: H&E, Masson's trichrome stained aorta and heart tissue was used for histological analysis for cardiovascular wall thickening and plaque accumulation.

[6] = system: C57Bl-6 mice subject to trans-aortic constriction; test: M-mode echocardiography after trans-aortic constriction (TAC); type: in vivo, mouse; details: D-PDMP fed for a week before surgery, vs sham
Method: Normal male mice (C57B1-6), 11 weeks old, were also purchased from the Jackson Laboratory, Bar Harbor, Me.). After having measured the basal physiologic parameters such as blood pressure, weight, and ultra sound measurements, the 9 mice were divided as follows. Six mice were given 100 μL of vehicle (5% Tween-80 in phosphate—buffered saline) by oral gavage. The other three mice were fed 10 mpk of D-PDMP solubilized in vehicle. This procedure was continued for 7 days. Next, 3 mice in mice fed vehicle group and 3 mice fed D-PDMP were subject to trans-aortic constriction (Cingolani et al., 109 CIRC. RES. 00-00 (2011). At one week, two week and six weeks post-surgery, the mice were subjected to M mode ultrasound analysis. Finally, blood was drawn, and the animals were euthanized. The heart was excised, sliced in halves and its anatomy photographed.
as §1, §2

[7] = system: lactosylceramide synthase; test: Lactosylceramide synthase activity in heart tissue of apoE−/− mice; type: in vivo, mouse; details: 5 mpk and 10 mpk, 20 weeks and 36 weeks
Method: (§4) Approximately 10 mg of heart tissue were homogenized in Tris buffer (pH 7.8) and centrifuged at 10,000 rpm for 10 min. The supernatant was used as a source for enzyme. [^3H]UDP-Gal (American Radiolabled company, St Louis, Mo.) served as the nucleotide sugar donor in LacCer synthase assay and [^3H]UDP-Glc served as the nucleotide sugar donor in GlcCer synthase assay. The details of these assays have been described previously. See Chatterjee, S., 311 METHODS IN ENZYMOLOGY 73-81 (2000). All assays were conducted in triplicate from 3 to 5 aorta samples from mice in each group.

[8] = target: T1, glucosylceramide synthase (Mus musculus, UniProt O88693); test: Glucosylceramide synthase activity in heart tissue of apoE−/− mice; type: in vivo; details: 5 mpk and 10 mpk, 20 weeks and 36 weeks
T1 sequence (O88693 1-394): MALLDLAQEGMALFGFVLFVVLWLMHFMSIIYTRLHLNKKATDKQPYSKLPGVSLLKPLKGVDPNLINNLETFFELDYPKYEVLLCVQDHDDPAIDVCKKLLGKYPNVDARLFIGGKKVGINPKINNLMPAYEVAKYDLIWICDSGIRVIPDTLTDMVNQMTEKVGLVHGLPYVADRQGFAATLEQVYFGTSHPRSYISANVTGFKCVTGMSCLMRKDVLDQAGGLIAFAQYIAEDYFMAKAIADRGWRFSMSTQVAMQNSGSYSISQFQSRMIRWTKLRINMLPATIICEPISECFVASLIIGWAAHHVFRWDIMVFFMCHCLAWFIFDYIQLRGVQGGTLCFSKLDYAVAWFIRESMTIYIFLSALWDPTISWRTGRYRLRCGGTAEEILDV
Method: as §4

[9] = system: glycosphingolipids; test: HPLC analysis of glycosphingolipid levels in heart tissue, apoE−/− mice; type: in vivo, mouse
Method: (§5) Approximately 10 mg of heart tissue was homogenized in chloroform-methanol (2:1, v/v) and lipids were extracted. Bligh et al., 37.8 CAN. J. BIOCHEM. AND PHYSIOL. 911-17 (1959). The total lipid extracts were dried in nitrogen and subject to deacylation using sphingosine ceramide N-deacylation.

[10] = system: glycosphingolipids; test: HPLC analysis of glycosphingolipid levels in heart tissue, TAC mice; type: in vivo, mouse; details: mice subject to trans-aortic constriction
Method: as §5

[11] = system: TGFβ; test: Western blot of TGFβ in left ventricular heart homogenates; type: in vivo, mouse; details: 5 mpk and 10 mpk
Method: FIG. 16. TGFβ over expression in hypertrophic mouse heart is mitigated by the use of D-PDMP. Left ventricular heart homogenates were prepared from placebo, 5 mpk and 10 mpk treated mouse hearts. Western blot analysis was done using anti TGFβ antibody. Expression levels of GAPDH were used to normalize the protein expression. Expression levels were quantified by using Image J v.1.45s (NIH, USA) software. (a) Western immunoblot of TGF-β. (b) Corresponding densitomeric scan.

[12] = system: oxidized -LDL; test: Serum level of oxidized LDL in apoE−/− mice fed western diet; type: in vivo, mouse
[13] = system: hypertrophic marker, antioxidant and collagen gene mRNA; details: 10 mpk, left ventricular tissue
[14] = system: p44MAPK; test: Western immunoblot of p44MAPK in heart tissue
[15] = system: apoE−/− mice; test: Ultrasound imaging of aortic intima media thickening (AoIMT); details: for aortic intima media thickening (AoIMT): 16 and 20 week old mice
[16] = system: lactosylceramide synthase; test: Lactosylceramide synthase activity in aorta tissue of D-PDMP-fed apoE−/− mice; details: hyperlipidemic diet; for decrease of LCS activity as compared to hyperlipidemic mouse aorta: 20 week old apoE−/− mice
[17] = target: T1, glucosylceramide synthase; test: Glucosylceramide synthase activity in aorta tissue of D-PDMP-fed apoE−/− mice; details: 5 and 10 mpk, hyperlipidemic diet, HCl
[18] = HCHF fed apoE−/− mice, to base line levels
[19] = 20 Weeks, 10MPK D-PDMP + Fat, n = 5
[20] = TAC and Apo E−/− mice (high fat and cholesterol diet)

SMILES: CCCCN1C[C@H](O)[C@@H](O)[C@H](O)[C@H]1CO [NB-DNJ, 1,5-(butylimino)-1,5-dideoxy-D-glucitol]
solubility in water [1]: soluble in water

activity of glucosylceramide synthase in heart tissue [8]: dose-dependently decreased
SMILES: CCCCCCCCCC(=O)N[C@H](CN1CCOCC1)[C@H](O)c1ccccc1.Cl [D-PDMP, D-threo-1-Phenyl-2-decanoylamino-3-morpholino-1-propanol HCl]
IVSD and PWTED wall thickness at end diastolic phase ([2]; 5-MPK D-PDMP + fat, up to 20 weeks of age): thicker
Fractional shortening (FS %) of left ventricle ([2]; 5 MPK + fat, 16 and 20 weeks of age): significant decline
Fractional shortening (FS %) vs baseline and control ([2]; 10 MPK + fat, 16 and 20 weeks): did not significantly differ from the baseline and control
IVSD and PWTED wall thickness at end diastolic phase (hypertrophied wall) ([2]; 10 MPK + fat, up to 20 weeks of age): non hypertrophied
Fractional Shortening (%) ([2]; 20 Weeks, 10MPK D-PDMP + Fat, n = 5, Mean±SEM): 61.77 ± 1.69%
fractional shortening [2, 18]: dose-dependent reversal
left ventricular mass [2, 18]: dose-dependent reversal
heart hypertrophy and dysfunction (M mode ultrasound) ([2]; hyperlipidemic diet, dose dependent manner): complete protection
Blood Pressure* (mmHg), lower value (marked ^ in Control row) [3, 19]: 75.8 ± 11.55 mmHg
Blood Pressure* (mmHg), upper value (marked ** in Control row) [3, 19]: 102.98 ± 12.34 mmHg
blood pressure ([3]; daily oral gavage, apoE−/− mice on high fat and cholesterol diet): reversed the blood pressure to normal level
arterial stiffness (PWV) [4]: reduces
fibrosis [5]: reduced
intimal wall thickness [5]: reduced
plaque accumulation [5]: reduced
fractional shortening [6]: completely reversed
left ventricular mass [6]: completely reversed
activity of lactosylceramide synthase in heart tissue [7]: dose-dependently decreased
mass of glycosphingolipids in heart tissue [9]: inhibits
level of glycosphingolipids [10]: decreases
TGFβ over expression in hypertrophic mouse heart [11]: mitigated
increase of serum level of oxidized -LDL (about 4-fold on western diet) [12]: mitigated
Catalase mRNA expression level ([13]; TAC and Apo E−/− mice): induces
SOD1 mRNA expression level ([13]; TAC and Apo E−/− mice): induces
SOD2 mRNA expression level ([13]; TAC and Apo E−/− mice): induces
ANP mRNA expression level [13, 20]: blunted
BNP mRNA expression level [13, 20]: blunted
βMHC mRNA expression level [13, 20]: blunted
mRNA levels of collagen type II and III genes ([13]; TAC mice): decreased
solubility in water [1]: soluble in water
level of phosphorylated p44MAPK in heart tissue ([14]; 10 mpk, vs placebo): decrease
phosphorylation of p44MAPK in heart tissue ([14]; both animal models (apoE−/− and TAC)): mitigated
aortic intima media thickening (AoIMT) ([15]; 5 MPK + fat): progressively increased
aortic intima media thickening (AoIMT) ([15]; 10 MPK + fat): did not change
increase in aortic intima media thickening (IMT) caused by hyperlipidemic diet ([15]; dose not stated): reversed
activity of lactosylceramide synthase in aorta tissue ([16]; 5 and 10 mpk, apoE−/− mice, HCl): dose-dependently decreased; also recorded: completely prevented
decrease of LCS activity as compared to hyperlipidemic mouse aorta ([16]; 5 mpk D-PDMP): ~52%
decrease of LCS activity as compared to hyperlipidemic mouse aorta ([16]; 10 mpk D-PDMP): ~32%
activity of glucosylceramide synthase in aorta tissue [17]: dose-dependent decrease in glucosylceramide synthase activity was not observed; also recorded: completely prevented; also recorded: decreased
